Data as given in patent publication US6806230B1, “Pyrimidine derivatives and herbicides containing them” (Kumiai Chemical Industry Co., Ltd., priority 1999, dated 2004).
Values joined by “and” are separate entries in the source; they are usually repeats but may differ in a detail not shown here. Identical values can stand only once.

How the values were obtained:
barnyard grass (Ec) [1] = assay: Test Example 2: herbicidal effects by upland soil treatment; type: in vivo; parameters: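 0-5 growth inhibition grade; 5 = over 90%; 4 = 70-90%; 3 = 50-70%; 2 = 30-50%; 1 = 10-30%; 0 = under 10%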; details: dose 100 g active ingredient per 10 ares, examined on the 21st day after treatment; for herbicidal effects, Ec (barnyard grass): standards of Table 44
In short: (§1)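 Pre-emergence test: barnyard grass and green foxtail sown in upland soil, then soil surface sprayed with wettable-powder formulation at 100 g active ingredient per 10 ares (100 l per 10 ares). Grown in greenhouse; herbicidal effect scored on a rating scale 21 days after treatment.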

green foxtail (Se) = assay: as above; type: in vivo; details: dose 100 g active ingredient per 10 ares, examined on the 21st day after treatment, standards of Table 44;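 note: 0-5 growth inhibition grade; 5 = over 90%; 4 = 70-90%; 3 = 50-70%; 2 = 30-50%; 1 = 10-30%; 0 = under 10%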
In short: as §1

monochoria (Mo) [2] = assay: Test Example 1: herbicidal effects by flooded paddy field treatment; type: in vivo; parameters: herbicidal effects, Mo (monochoria):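 0-5 growth inhibition grade; 5 = over 90%; 4 = 70-90%; 3 = 50-70%; 2 = 30-50%; 1 = 10-30%; 0 = under 10%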; details: for Herbicidal effect index, Mo: dose 100 gai/10a, examined on 21st day after treatment, index 0-5 per Table 44; for herbicidal effects, Mo (monochoria): dose 100 g active ingredient per 10 ares, examined on the 21st day after treatment, standards of Table 44;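 for Herbicidal effect index, Mo: 0-5 growth inhibition grade; 5 = over 90%; 4 = 70-90%; 3 = 50-70%; 2 = 30-50%; 1 = 10-30%; 0 = under 10%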
In short: (§2)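 Herbicidal effect is a graded score assigned 21 days after treatment. Application was one day after sowing into flooded (3 cm) puddled paddy soil, with diluted wettable powder dropped onto the water at 100 g active ingredient per 10 ares. Plants were kept in a greenhouse.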

barnyard grass (Eo) [3] = assay: Test Example 1: herbicidal effects by flooded paddy field treatment; type: in vivo; parameters: herbicidal effects, Eo (barnyard grass):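 0-5 growth inhibition grade; 5 = over 90%; 4 = 70-90%; 3 = 50-70%; 2 = 30-50%; 1 = 10-30%; 0 = under 10%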; details: for Herbicidal effect index, Eo: dose 100 gai/10a, examined on 21st day after treatment, index 0-5 per Table 44; for herbicidal effects, Eo (barnyard grass): dose 100 g active ingredient per 10 ares, examined on the 21st day after treatment, standards of Table 44;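 for Herbicidal effect index, Eo: 0-5 growth inhibition grade; 5 = over 90%; 4 = 70-90%; 3 = 50-70%; 2 = 30-50%; 1 = 10-30%; 0 = under 10%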
In short: as §2

barnyard grass (Ec) [4] = assay: Test Example 3: herbicidal effects by foliage treatment in upland field; type: in vivo; parameters: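 0-5 growth inhibition grade; 5 = over 90%; 4 = 70-90%; 3 = 50-70%; 2 = 30-50%; 1 = 10-30%; 0 = under 10%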; details: dose 100 g active ingredient per 10 ares, examined on the 14th day after treatment
In short: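 Barnyard grass and green foxtail were grown in upland soil for 2 weeks in a greenhouse. A water-diluted wettable powder was sprayed over the foliage at 100 l per 10 ares, giving 100 g active ingredient per 10 ares. Herbicidal effect was scored on day 14 after treatment.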

soybean (G1) = assay: Test Example 5: selectivity for a crop plant by soil treatment in upland field; type: in vivo; parameters: scale not given here; details: dose 25 gai/10a, 21st day after treatment, index per Table 44
In short: (§3)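 Upland soil in pots was sown with barnyard grass, green foxtail, soybean, wheat and corn. A diluted wettable powder was sprayed onto the soil surface (100 l per 10 ares) at 25 g active ingredient per 10 ares. Herbicidal effect was scored against a rating standard 21 days after treatment, with plants grown in a greenhouse.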

wheat (Tr) = assay: as above; type: in vivo; parameters: scale not given here; details: dose 25 gai/10a, 21st day after treatment, index per Table 44
In short: as §3

barnyard grass (Ec) [5] = assay: as above; type: in vivo; parameters: scale not given here; details: dose 25 gai/10a, 21st day after treatment, index per Table 44
In short: as §3

corn (Ze) = assay: as above; type: in vivo; parameters: scale not given here; details: dose 25 gai/10a, 21st day after treatment, index per Table 44
In short: as §3

monochoria (Mo) [6] = assay: Test Example 4: selectivity for a crop plant by flooded paddy field treatment; type: in vivo; parameters: scale not given here; details: for Mo (herbicidal effects, index): dose 25 g active ingredient per 10 ares, examined on the 21st day after treatment; for Mo (herbicidal effect index): monochoria, dose 25 gai/10a, 21st day after treatment, index per Table 44
In short: (§4)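 Scores reflect visual herbicidal effect, graded on a standard scale 21 days after water-surface treatment. The product, a wettable powder diluted with water, went on dropwise at 25 g a.i. per 10 ares one day after flooding to 3 cm. Weeds grew from sown seed and rice was transplanted at second-leaf stage.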

barnyard grass (Eo) [7] = assay: as above; type: in vivo; parameters: scale not given here; details: for Eo (herbicidal effects, index): dose 25 g active ingredient per 10 ares, examined on the 21st day after treatment; for Eo (herbicidal effect index): barnyard grass, dose 25 gai/10a, 21st day after treatment, index per Table 44
In short: as §4

rice (Or) = assay: as above; type: in vivo; parameters: scale not given here; details: rice transplanted at second leaf stage; for Or (effect on crop plant rice, index): dose 25 g active ingredient per 10 ares, examined on the 21st day after treatment; for Or (herbicidal effect index on crop): dose 25 gai/10a, 21st day after treatment, index per Table 44
In short: as §4

SMILES	herbicidal effects, Ec (barnyard grass) (barnyard grass (Ec) [1])	herbicidal effects, Se (green foxtail) (green foxtail (Se))	Herbicidal effect index, Mo (monochoria (Mo) [2])	melting point	Herbicidal effect index, Eo (barnyard grass (Eo) [3])	herbicidal effects, Mo (monochoria) (monochoria (Mo) [2])	herbicidal effects, Eo (barnyard grass) (barnyard grass (Eo) [3])	Ec (herbicidal effects, index) (barnyard grass (Ec) [4])	Gl (herbicidal effect index on crop) (soybean (G1))	Tr (herbicidal effect index on crop) (wheat (Tr))	Ec (herbicidal effect index) (barnyard grass (Ec) [5])	Ze (herbicidal effect index on crop) (corn (Ze))	Mo (herbicidal effects, index) (monochoria (Mo) [6])	Eo (herbicidal effects, index) (barnyard grass (Eo) [7])	Or (effect on crop plant rice, index) (rice (Or))	Ec (herbicidal effects, index) (barnyard grass (Ec) [1])	Mo (herbicidal effect index) (monochoria (Mo) [6])	Eo (herbicidal effect index) (barnyard grass (Eo) [7])	Or (herbicidal effect index on crop) (rice (Or))
COCN(C(=O)Cc1ccc(Cl)cc1)C(c1cncnc1C(F)(F)F)C(C)C (stereo not drawn) [Compound 1-105, N-methoxymethyl-N-[2-methyl-1-(4-trifluoromethylpyrimidin-5-yl)propyl]-4-chlorophenylacetamide]	5	5	5	142 to 145 °C	5														
CC(C)C(c1cncnc1C(F)(F)F)N(C)C(=S)Cc1ccccc1 (stereo not drawn) [Compound 1-142, N-methyl-N-[2-methyl-1-(4-trifluoromethylpyrimidin-5-yl)propyl]phenylthioacetamide]	5	5		93 to 94 °C		5	5	4											
CC(C(=O)N(C)C(c1cncnc1C(=O)O)C(C)C)c1ccc(Cl)cc1 (single isomer, unassigned) [Compound 1-718, 5-(1-{[2-(4-chlorophenyl)-propionyl]methylamino}-2-methylpropyl)-pyrimidine-4-carboxylic acid]				168 to 170 °C															
CC(C)C(c1cncnc1C(F)(F)F)N(C)C(=O)Cc1ccccc1 (stereo not drawn) [Compound 1-8, N-methyl-N-[2-methyl-1-(4-trifluoromethylpyrimidin-5-yl)propyl]phenylacetamide]	5	5	5	106 to 109 °C	5			5											
CC(C)C(c1cncnc1C=NO)N(C)C(=O)Cc1ccccc1 (stereo not drawn) [Compound 1-500, N-[1-(4-hydroxyiminomethylpyrimidin-5-yl)-2-methylpropyl]-N-methylphenylacetamide]				171 to 172 °C		5	5												
CCC(C)C(c1cncnc1C(F)(F)F)N(C)C(=O)Cc1ccc(Cl)cc1 (mixture of isomers) [Compound 1-59]	5	5	5		5			4	0	1	5	0	5	5	0				
CC(C)C(c1cncnc1C(F)(F)F)N(C)C(=O)N(C)Cc1ccc(Cl)cc1 (stereo not drawn) [Compound 1-532, 1-(4-chlorobenzyl)-1,3-dimethyl-3-[2-methyl-1-(4-trifluoromethyl-pyrimidin-5-yl)-propyl]-urea]				95 to 98 °C and 95 to 96 °C		5	5	5								5	5	5	1
CCN(C(=O)Cc1ccc(C#N)cc1)C(c1cncnc1C(F)(F)F)C(C)C (racemic) [Compound 1-98]	5	5	5		5			4	0	1	4	1	5	5	1				
CCC(C)C(c1cncnc1C(F)(F)F)N(C)C(=O)Cc1ccc(C)cc1 (mixture of isomers) [Compound 1-60]	5	5	5		5			4	1	2	5	0	5	5	1				
CC(C)C(c1cncnc1C(F)(F)F)N(C)C(=O)Cc1ccccn1 (stereo not drawn) [Compound 2-3, N-methyl-N-[2-methyl-1-(4-trifluoromethylpyrimidin-5-yl)propyl]-2-pyridylacetamide]				99 to 100 °C		5	5												
CC(C)C(c1cncnc1C(F)(F)F)N(C)C(=O)N(C)c1ccccc1 (stereo not drawn) [Compound 1-424, 1,3-dimethyl-1-[2-methyl-1-(4-trifluoromethyl-pyrimidin-5-yl)-propyl]-3-phenylurea]				104 to 105 °C		5	5	4								5			
Cc1ccc(CC(=O)N(C)C(c2cncnc2C)C(C)C)cc1 (racemic) [Compound 1-89]	5	5	5		5			5	0	2	4	2	5	5	0				
CC(C)C(c1cncnc1C#N)N(C)C(=O)Cc1ccccc1 (stereo not drawn) [Compound 1-504, N-[1-(4-cyanopyrimidin-5-yl)-2-methylpropyl]-N-methylphenylacetamide]				80 to 81 °C		5	5	5								5	5	5	1
CC(C)C(c1cncnc1C(F)(F)F)N(C)C(=O)Cc1ccc(Cl)cc1F (racemic) [Compound 1-46]	5	5	5		5			4	1	3	5	0	5	5	0				
